Source: patent US10017492B2 (KANGPU BIOPHARMACEUTICALS, LTD., priority 2014, dated 2018)
Where two headings read alike, the source gives them in different places.

Columns and labels:
[1] = tested on: WSU-DLCL-2 cells (diffuse large B cell lymphoma cells); test: CTG cell proliferation assay, WSU-DLCL-2 cells; type: cell-based; details: 72-120 hours, CellTiter-Glo, read-out: IC50 Value of WSU-DLCL2 Inhibition
Method: (§1) CTG Cell Proliferation Assay
(§2) Rec-1 cells (Mantle cell lymphoma cells) (ATCC, catalog number CRL-3004), Namalwa.CSN/70 cells (Burkitt lymphoma cells) (DSMZ, catalog number ACC-70), and WSU-DLCL-2 cells (diffuse large B cell lymphoma cells) (DSMZ, catalog number ACC-575) were seeded at (5-15)×10^3 per well to a 96-well plate with transparent bottom and white wall (Corning, catalog number CLS3903) containing specific medium. The plate was placed in an incubator and incubated for 24 hours at 37° C. under 5% CO2. Compounds were prepared as 150 mM stock solutions with DMSO (Sigma, catalog number 276855), and were diluted with the medium to the desired concentration (the final concentration of DMSO was 0.2%) and then were added to each well, incubated in an incubator for 72-120 hours at 37° C. under 5% CO2. Then, 100 μl CellTiter-Glo® cell activity assay reagent (Promega, catalog number G7570) was added to each well. Mixing proceeded for 10 minutes on a shaker to induce cytolysis. The 96-well plate was placed at room temperature for 10 minutes to make the luminous signal stable. A white base film was pasted at the bottom of the culture plate. EnSpire was used to test the plate.

[2] = tested on: Rec-1 cells (Mantle cell lymphoma cells); test: CTG cell proliferation assay, Rec-1 cells; type: cell-based; details: Homo sapiens, Rec1, 72-120 hours, CellTiter-Glo, read-out: IC50 Value of Rec-1 Inhibition
Method: as §1, §2

[3] = tested on: MM.1S cells (myeloma cells); test: Cell proliferation assay (MTS), MM.1S myeloma cells; type: cell-based; details: Homo sapiens, MM1.S, 72 hours, read-out: IC50 values of MMIS Inhibition
Method: MM.1S cells (myeloma cells) (ATCC, catalog number CRL-2974) were seeded at 1.8×10^3 per well to a 96-well culture plate containing […] (Gibco, catalog number A10491-01), and were incubated in an incubator for 24 hours at 37° C. under 5% CO2. Compounds were prepared as 20 mM stock solutions with DMSO (Sigma, catalog number D2650), and were diluted with the medium to the desired concentration (the final concentration of DMSO was 0.5%) and then were added to each well, incubated in an incubator for 72 hours at 37° C. under 5% CO2. Then, 20 μL MTS (Promega, catalog number G3581) was added to each well, and further incubated for 1-4 hours in an incubator at 37° C. under 5% CO2. OD490 nm was detected with OD650 nm as reference. The control, a solution containing 0.5% DMSO medium, was as 0% inhibition. GraphPad Prism 5 was used, slope was allowed to change to make the dose-effect curve and IC50 values were calculated, shown in table 2 for details.

[4] = tested on: Namalwa.CSN/70 cells (Burkitt lymphoma cells); test: CTG cell proliferation assay, Namalwa.CSN/70 cells; type: cell-based; details: 72-120 hours, CellTiter-Glo, read-out: IC50 Value of Namalwa.CSN/70 Inhibition
Method: as §1, §2

TNF-α = TNF-α activity inhibiting assay (LPS-stimulated peripheral blood, ELISA); type: cell-based, human; details: Homo sapiens, compound 100 nM, diluted peripheral blood of healthy volunteers, LPS 10 ng/mL, 6 hours, read-out: Inhibitory Rate on TNF-α (%)
Method: TNF-α Activity Inhibiting Assay
Peripheral blood from healthy volunteers was collected and collected with EDTA anticoagulant tubes. After being diluted 5-fold with 1640 medium (Gibco, catalog number 11875-093, USA), the blood was added to 96-well cell culture plates (Costar, catalog number 3599, USA) and then treated with 10 μL solution of the compound of general formula (I) of the present invention in DMSO (Sigma, catalog number D2650, USA). The final concentration of the compound was 100 nM, and the final concentration of DMSO was 0.2%. After incubation for 60 minutes in an incubator at 37° C. under 5% CO2, 10 μL LPS (Sigma, catalog number L-2880, USA) was added to the reaction system, and the final concentration was 10 ng/mL. After further culturing for 6 hours in the incubator at 37° C. under 5% CO2, the supernatant was collected. The content of TNF-α was determined by ELISA (BD Biosciences, catalog number 555212, USA). Absorbance was detected at OD450 nm with a microplate reader, with OD 650 nm as reference. The control, a solution containing 0.2% DMSO medium, was as 0% inhibition. Raw data and standard curves were recorded. The four-parameter drug inhibition curve was plotted by XL-fit software and the inhibition rate of each compound was calculated, as shown in Table 1.

[5] = Homo sapiens, WSUDLCL2, WSU-DLCL-2 cells

| IC50 [1, 5] [µM] | IC50 [2] [nM] | IC50 [3] [nM] | IC50 [4] [µM] | IC50 ([1]; WSU-DLCL-2 cells) [µM] | SMILES | inhibition at 0.1 µM (TNF-α) [%] |
| --- | --- | --- | --- | --- | --- | --- |
| 0.401 to 300 | < 100 | < 300 | > 300 | – | [2H][C@]1(N2Cc3c(N)cc(F)cc3C2=O)CCC(=O)NC1=O [Compound I-31] | > 50 |
| > 300 | < 100 | < 300 | 0.401 to 300 | – | COc1ccc(COc2cccc3c2CN(C2CCC(=O)NC2=O)C3=O)c(F)c1 (centres unmarked) [Compound A329, 3-(4-((2-fluoro-4-methoxybenzyl)oxy)-1-oxoisoindolin-2-yl)piperidine-2,6-dione] | ≥ 50 |
| – | < 100 | < 300 | > 300 | 0.401 to 300 | [2H]C1(N2Cc3c(OCc4ccc(CN5CC(C)OC(C)C5)cc4F)cccc3C2=O)CCC(=O)NC1=O (centres unmarked) [Compound A427, 3-deuterium-3-(4-((4-((2,6-dimethylmorpholino)methyl)-2-fluorobenzyl)oxy)-1-oxoisoindolin-2-yl)piperidine-2,6-dione] | ≥ 50 |
| > 300 | 100 to 400 | ≥ 300 | > 300 | – | [2H][C@@]1(N2Cc3c(N)cc(F)cc3C2=O)CCC(=O)NC1=O [Compound I-32] | > 50 |
| < 0.1 | < 100 | < 300 | > 300 | – | O=C1CCC(N2Cc3c(OCc4ccc(CN5CCOCC5)cc4F)cccc3C2=O)C(=O)N1 (centres unmarked) [Compound A386, 3-(4-((2-fluoro-4-(morpholinomethyl)benzyl)oxy)-1-oxoisoindolin-2-yl)piperidine-2,6-dione] | ≥ 50 |
| 0.401 to 300 | < 100 | < 300 | 0.1 to 0.4 | – | [2H][C@]1(N2Cc3c(NCc4cccc(OC)c4F)cccc3C2=O)CCC(=O)NC1=O [Compound A357, (S)-3-deuterium-3-(4-((2-fluoro-3-methoxybenzyl)amino)-1-oxoisoindolin-2-yl)piperidine-2,6-dione] | ≥ 50 |
| > 300 | < 100 | < 300 | > 300 | – | Nc1cc(F)cc2c1CN([C@H]1CCC(=O)NC1=O)C2=O [Compound I-29] | > 50 |
| 0.401 to 300 | < 100 | < 300 | > 300 | – | O=C1CCC(N2Cc3c(NCc4cccc(CN5CCOCC5)c4F)cccc3C2=O)C(=O)N1 (centres unmarked) [Compound A381, 3-(4-((2-fluoro-3-(morpholinomethyl)benzyl)amino)-1-oxoisoindolin-2-yl)piperidine-2,6-dione] | ≥ 50 |
| < 0.1 | < 100 | < 300 | > 300 | – | [2H][C@]1(N2Cc3c(NCc4ccc(CN5CCOCC5)cc4F)cccc3C2=O)CCC(=O)NC1=O [Compound A402] | ≥ 50 |
| > 300 | < 100 | < 300 | > 300 | – | Nc1cc(F)cc2c1CN([C@@H]1CCC(=O)NC1=O)C2=O [Compound I-30] | – |
| > 300 | < 100 | < 300 | > 300 | – | COc1ccc(F)c(CNc2cccc3c2CN(C2CCC(=O)NC2=O)C3=O)c1 (centres unmarked) [Compound A195, 3-(4-((2-fluoro-5-methoxybenzyl)amino)-1-oxoisoindolin-2-yl)piperidine-2,6-dione] | – |
| – | – | < 300 | – | – | COc1cccc(CNc2cccc3c2CN(C2CCC(=O)NC2=O)C3=O)c1F (centres unmarked) [Compound A196, 3-(4-((2-fluoro-3-methoxybenzyl)amino)-1-oxoisoindolin-2-yl)piperidine-2,6-dione] | ≥ 50 |
| – | – | < 300 | – | – | O=C1CCC(N2Cc3c(NCc4cc(OCCCN5CCOCC5)ccc4F)cccc3C2=O)C(=O)N1 (centres unmarked) [Compound A369, 3-(4-((2-fluoro-5-(3-morpholinopropoxy)benzyl)amino)-1-oxoisoindolin-2-yl)piperidine-2,6-dione] | ≥ 50 |
| – | – | ≥ 300 | – | – | [2H][C@@]1(N2Cc3c(NCc4cc(OC)ccc4F)cccc3C2=O)CCC(=O)NC1=O [Compound A342, (R)-3-deuterium-3-(4-((2-fluoro-5-methoxybenzyl)amino)-1-oxoisoindolin-2-yl)piperidine-2,6-dione] | < 50 |
| – | – | < 300 | – | – | NS(=O)(=O)c1cccc(CNc2cccc3c2CN(C2CCC(=O)NC2=O)C3=O)c1F (centres unmarked) [Compound A389, 3-(((2-(2,6-dioxopiperidin-3-yl)-1-oxoisoindolin-4-yl)amino)methyl)-2-fluorobenzenesulfonamide] | < 50 |
| – | – | < 300 | – | – | O=C1CCC(N2Cc3c(NCc4cc(OCCN5CCOCC5)ccc4F)cccc3C2=O)C(=O)N1 (centres unmarked) [Compound A368, 3-(4-((2-fluoro-5-(2-morpholinoethoxy)benzyl)amino)-1-oxoisoindolin-2-yl)piperidine-2,6-dione] | ≥ 50 |
| – | – | < 300 | – | – | [2H][C@]1(N2Cc3c(NCc4cc(OC)ccc4F)cccc3C2=O)CCC(=O)NC1=O [Compound A343, (S)-3-deuterium-3-(4-((2-fluoro-5-methoxybenzyl)amino)-1-oxoisoindolin-2-yl)piperidine-2,6-dione] | ≥ 50 |
| – | – | < 300 | – | – | CNc1ccc(F)c(CNc2cccc3c2CN(C2CCC(=O)NC2=O)C3=O)c1 (centres unmarked) [Compound A387, 3-(4-((2-fluoro-5-(methylamino)benzyl)amino)-1-oxoisoindolin-2-yl)piperidine-2,6-dione] | ≥ 50 |
| – | – | < 300 | – | – | Cc1ccc(CNc2cccc3c2CN(C2CCC(=O)NC2=O)C3=O)cc1Cl (centres unmarked) [Compound A352, 3-(4-((3-chloro-4-methylbenzyl)amino)-1-oxoisoindolin-2-yl)piperidine-2,6-dione] | < 50 |
| – | – | < 300 | – | – | O=C1CCC(N2Cc3c(NCc4cc(O)ccc4F)cccc3C2=O)C(=O)N1 (centres unmarked) [Compound A364, 3-(4-((2-fluoro-5-hydroxybenzyl)amino)-1-oxoisoindolin-2-yl)piperidine-2,6-dione] | < 50 |
| – | – | < 300 | – | – | Cc1ccc(CNc2cccc3c2CN(C2CCC(=O)NC2=O)C3=O)cc1C (centres unmarked) [Compound A350, 3-(4-((3,4-dimethylbenzyl)amino)-1-oxoisoindolin-2-yl)piperidine-2,6-dione] | < 50 |
| – | – | < 300 | – | – | O=C1CCC(N2Cc3c(NCc4cc(OCCN5CCCC5)ccc4F)cccc3C2=O)C(=O)N1 (centres unmarked) [Compound A376, 3-(4-((2-fluoro-5-(2-(pyrrolidin-1-yl)ethoxy)benzyl)amino)-1-oxoisoindolin-2-yl)piperidine-2,6-dione] | ≥ 50 |

| SMILES | IC50 [1, 5] [µM] | IC50 [2] [nM] | IC50 [3] [nM] | IC50 [4] [µM] | IC50 ([1]; WSU-DLCL-2 cells) [µM] | inhibition at 0.1 µM (TNF-α) [%] |
| --- | --- | --- | --- | --- | --- | --- |
| CNC(=O)Oc1ccc(F)c(CNc2cccc3c2CN(C2CCC(=O)NC2=O)C3=O)c1 (centres unmarked) [Compound A371, 3-(((2-(2,6-Dioxopiperidin-3-yl)-1-oxoisoindolin-4-yl)amino)methyl)-4-fluorophenyl methylcarbamate] | – | – | < 300 | – | – | ≥ 50 |
